Experimental data as given in ChEMBL document CHEMBL6134780, “Halogenated retinoid derivatives as dual RARα and RXRα modulators for treating acute promyelocytic leukemia cells” (Eur J Med Chem, 2024).
Activity calls are given as the source filed them. No cut-off for these calls is given here.

Key:
[1] = test system: NB-4; test: Cell cycle arrest in human NB4 cells assessed as accumulation of cells at sub-G1 phase at 0.5 uM incubated for 6 days for DAPI staining based flow cytometric analysis (reference value: 6 %); format: functional; settings: time 6 day
[2] = test system: NB-4; test: Cell cycle arrest in human NB4 cells assessed as increase in cyclin B1 expression at 2 uM incubated for 3 to 24 hrs by Western blot analysis; format: functional, cell-based; settings: time 3-24 hrs
[3] = test system: NB-4; test: Antiproliferative activity against human NB4 cells assessed as inhibition of cell viability up to 3.5 uM incubated for 3 days by CCK8 assay relative to control; format: functional; settings: time 3 day
[4] = test system: NB-4; test: Antiproliferative activity against human NB4 cells assessed as inhibition of cell viability incubated for 3 days by CCK8 assay; format: functional, cell-based; settings: dose <= 3.5 µM, time 3.0 day
[5] = test system: K562; test: Induction of apoptosis in human K562 cells assessed as necrotic cells at 2 uM incubated for 24 hrs by Annexin V-FITC/PI staining based flow cytometric analysis (reference value: 2.19 %); format: functional
[6] = target: T1, Retinoic acid receptor gamma (Homo sapiens) (UniProt P13631); test: Agonist activity at Gal4-fused full length RARgamma LBD (unknown origin) transfected in HEK293T cells co-transfected with pG5luc reporter and Renilla-luc assessed as transactivation at 0.1 to 1 uM incubated for 12 hrs by luciferase reporter gene assay; format: cell-based; settings: dose 0.1-1 µM
T1 sequence (whole entry): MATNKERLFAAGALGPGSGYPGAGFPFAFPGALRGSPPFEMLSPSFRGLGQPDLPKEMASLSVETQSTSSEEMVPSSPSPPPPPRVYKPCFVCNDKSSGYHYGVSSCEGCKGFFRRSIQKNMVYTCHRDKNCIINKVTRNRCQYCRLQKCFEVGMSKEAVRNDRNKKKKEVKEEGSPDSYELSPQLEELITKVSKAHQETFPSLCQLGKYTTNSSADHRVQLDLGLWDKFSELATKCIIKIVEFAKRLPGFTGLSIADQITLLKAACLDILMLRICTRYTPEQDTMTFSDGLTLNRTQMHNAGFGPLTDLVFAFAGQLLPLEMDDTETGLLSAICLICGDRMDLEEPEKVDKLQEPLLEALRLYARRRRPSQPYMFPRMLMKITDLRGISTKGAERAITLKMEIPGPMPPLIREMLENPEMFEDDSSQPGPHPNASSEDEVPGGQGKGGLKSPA

[7] = test system: NB-4; test: Induction of DNA damage in human NB4 cells assessed as increase in gamma-H2AX expression at 2 uM by Western blot analysis; format: functional, cell-based
[8] = target: T2, Retinoic acid receptor gamma (Homo sapiens, UniProt P13631); test: Agonist activity at Gal4-fused full length human RARgamma LBD transfected in HEK293T cells co-transfected with pG5luc reporter and Renilla-luc assessed as transactivation incubated for 12 hrs by dual luciferase reporter gene assay; format: cell-based; settings: read-out: EC50
T2 sequence (P13631 whole entry): T1 sequence (whole entry)

[9] = test system: NB-4; test: Induction of apoptosis in human NB4 cells assessed as early apoptotic cells at 1 uM incubated for 24 hrs by Annexin V-FITC/PI staining based flow cytometric analysis (reference value: 4.37 %); format: functional
[10] = test system: ATRA-resistant NB4-LR2; test: Induction of apoptosis in human ATRA-resistant NB4-LR2 cells assessed as PARP cleavage at 0.5 uM incubated for 24 hrs by Western blot analysis; format: functional, cell-based
[11] = target: T3, Retinoic acid receptor RXR-gamma (Homo sapiens) (UniProt P48443); test: Competitive binding affinity to Gal4-fused full length RXRgamma LBD (unknown origin) transfected in HEK293T cells co-transfected with pG5luc reporter and Renilla-luc at 0.1 to 1 uM incubated for 12 hrs in presence of ATRA by luciferase reporter gene assay; format: cell-based; settings: dose 0.1-1 µM
T3 sequence (whole entry): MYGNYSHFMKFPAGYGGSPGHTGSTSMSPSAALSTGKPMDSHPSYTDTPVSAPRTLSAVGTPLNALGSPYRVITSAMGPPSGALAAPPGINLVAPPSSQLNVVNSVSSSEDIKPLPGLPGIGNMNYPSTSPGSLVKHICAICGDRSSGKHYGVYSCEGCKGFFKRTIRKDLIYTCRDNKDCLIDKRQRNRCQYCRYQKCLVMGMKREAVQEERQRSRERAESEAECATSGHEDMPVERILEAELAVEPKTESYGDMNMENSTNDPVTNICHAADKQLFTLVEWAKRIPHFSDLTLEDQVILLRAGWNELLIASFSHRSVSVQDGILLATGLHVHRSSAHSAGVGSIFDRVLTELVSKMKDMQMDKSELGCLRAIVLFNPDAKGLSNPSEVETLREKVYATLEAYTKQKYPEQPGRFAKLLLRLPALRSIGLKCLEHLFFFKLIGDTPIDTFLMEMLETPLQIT

[12] = test system: NB-4; test: Induction of apoptosis in human NB4 cells assessed as necrotic cells at 1 uM incubated for 24 hrs by Annexin V-FITC/PI staining based flow cytometric analysis (reference value: 0.07 %); format: functional
[13] = target: T4, Retinoic acid receptor beta (Homo sapiens) (UniProt P10826); test: Agonist activity at Gal4-fused full length RARbeta LBD (unknown origin) transfected in HEK293T cells co-transfected with pG5luc reporter and Renilla-luc at 0.1 to 1 uM incubated for 12 hrs by luciferase reporter gene assay; format: cell-based; settings: dose 0.1-1 µM
T4 sequence (whole entry): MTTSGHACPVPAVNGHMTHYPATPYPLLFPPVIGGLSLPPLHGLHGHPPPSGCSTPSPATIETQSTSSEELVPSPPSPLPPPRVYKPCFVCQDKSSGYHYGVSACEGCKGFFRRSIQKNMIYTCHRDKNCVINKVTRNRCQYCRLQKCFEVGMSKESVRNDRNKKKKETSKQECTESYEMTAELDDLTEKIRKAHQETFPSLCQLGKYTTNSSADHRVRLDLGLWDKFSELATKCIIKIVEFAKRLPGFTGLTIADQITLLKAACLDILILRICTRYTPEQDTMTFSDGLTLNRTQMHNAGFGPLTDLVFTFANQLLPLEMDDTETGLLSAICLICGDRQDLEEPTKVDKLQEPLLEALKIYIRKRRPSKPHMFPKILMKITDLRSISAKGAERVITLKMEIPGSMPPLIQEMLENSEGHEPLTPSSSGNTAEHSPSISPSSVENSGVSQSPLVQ

[14] = test system: K562; test: Induction of apoptosis in human K562 cells assessed as late apoptotic cells at 2 uM incubated for 24 hrs by Annexin V-FITC/PI staining based flow cytometric analysis (reference value: 5.98 %); format: functional
[15] = test system: NB-4; test: Cell cycle arrest in human NB4 cells assessed as increase in PLK1 expression at 2 uM incubated for 3 to 24 hrs by Western blot analysis; format: functional, cell-based; settings: time 3-24 hrs
[16] = test system: NB-4; test: Induction of apoptosis in human NB4 cells at 2 uM incubated for 3 hrs by Western blot analysis; format: functional, cell-based
[17] = test system: ATRA-resistant NB4-LR2; test: Cell cycle arrest in human ATRA-resistant NB4-LR2 cells assessed as increase in cyclin B1 expression at 2 uM incubated for 3 to 24 hrs by Western blot analysis; format: functional, cell-based; settings: time 3-24 hrs
[18] = test system: K562; test: Induction of apoptosis in human K562 cells assessed as late apoptotic cells at 1 uM incubated for 24 hrs by Annexin V-FITC/PI staining based flow cytometric analysis (reference value: 5.98 %); format: functional
[19] = test system: ATRA-resistant NB4-LR2; test: Induction of cell differentiation in human ATRA-resistant NB4-LR2 cells at 0.5 uM incubated for 6 days by flow cytometric analysis; format: functional, cell-based; settings: time 6.0 day

| Activity [6] | EC50 [8] [µM] | Activity [13] | SMILES | Activity [1] [%] | Activity [2] | inhibition (INH) [3] [%] | Activity [4] | Activity [5] [%] | Activity [7] | Activity [9] [%] | Activity [10] | Activity [11] | Activity [12] [%] | Activity [14] [%] | Activity [15] | Activity [16] | Activity [17] | Activity [18] [%] | Activity [19] |
| --- | --- | --- | --- | --- | --- | --- | --- | --- | --- | --- | --- | --- | --- | --- | --- | --- | --- | --- | --- |
| Weak_effect | 1.14 | Minimal_effect | Cc1cc2c(cc1C(=O)/C(Br)=C\c1ccc(C(=O)O)cc1)C(C)(C)CCC2(C)C | 6 | Active | 100 | Dose-dependent-effect | 3.03 | Active; Dna Damage Detected When Apoptosis Occurred | 12.39 | Active | Not active; No Significant Competitive Effect On Atra Activation Observed | 0.52 | 7.14 | Active | inactive | Active | 6.86 | Minimal_effect |
| Weak_effect | 2.24 | Minimal_effect | Cc1cc2c(cc1C(=O)/C(Br)=C/c1ccc(C(=O)O)cc1)C(C)(C)CCC2(C)C | 9 | Active | 100 | Dose-dependent-effect | 2.27 | Active; Dna Damage Detected When Apoptosis Occurred | 23.14 | Active | Not active; No Significant Competitive Effect On Atra Activation Observed | 1.3 | 7.92 | Active | inactive | Active | 7.4 | Minimal_effect |
